Like-named read-outs stand apart in the source and are kept apart here.
What was measured:
[1] = system: p53; test: p53 induction / expression (Western blot); assay type: cell-based; settings: for p53 induction: words or +/− grades, key not given
Procedure: (§1) Cells were lysed in a buffer composed of 50 mM Tris, pH 7.6, 150 mM NaCl, 1% Nonidet P-40, 10 mM sodium phosphate, 10 mM NaF, 1 mM sodium orthovanadate, 2 mM phenylmethylsulfonyl fluoride (PMSF), […], 10 μg/mL leupeptin and 10 μg/mL pepstatin. After centrifugation, the clarified cell lysate was separated from the pellet of cell debris, and then incubated with 15 μL Protein G/Protein A-agarose and 1 μg of antibodies, overnight at 4° C. For the Western blot, the resulting cell lysates or immunoprecipitates were resolved by SDS-PAGE. They were then transferred to a nitrocellulose filter and probed with the specific antibodies as listed in the supplemental Materials section. Finally, proteins were visualized with a chemiluminescent detection system.

[2] = system: 697 cell line; test: WST cytotoxicity assay, 697 cell line; assay type: cell-based; settings: read-out: Cancer cell cytotoxicity IC50
Procedure: (§2) The cytotoxic effect of MX 69 and MX69 analogs on cancer cells was determined using the water-soluble tetrazolium salt (WST) assay. Briefly, cells cultured in 96-well microtiter plates were treated with different concentrations of AQ-101 for a 20-h period. WST (25 μg/well) was then added and incubation continued for an additional 4 h, after which optical density (OD) was read with a microplate reader (test wavelength of 450 nm; reference wavelength of 620 nm).

[3] = system: NB-1643; test: WST cytotoxicity assay, NB-1643; assay type: cell-based; settings: Homo sapiens; NB-1643 line; read-out: Cancer cell cytotoxicity IC50
Procedure: (§3) This study used two ALL cell lines (EU-1 and EU-3) and three NB cell lines (NB-1643, SHEP1 and LA1-55N). All 5 cancer cell lines were established from pediatric ALL or NB patients and were well-characterized for their expression of MDM2 and p53-status, as reported previously. All cell lines were grown in standard culture medium (RPMI 1640 containing 10% FBS, 2 mmol/L L-glutamine, 50 U penicillin and 50 μg/mL streptomycin) at 37° C. in a humidified atmosphere containing 5% CO2.
as §2

[4] = system: MYCN; test: MYCN inhibition; assay type: cell-based; settings: MDM2 reduction
[5] = system: 855 line; test: WST cytotoxicity assay, 855 line; assay type: cell-based; settings: read-out: Cancer cell cytotoxicity IC50
Procedure: as §2

[6] = system: NB cell lines NB-1643, SHEP1 and LA1-55N; test: WST cytotoxicity assay, NB cell lines; assay type: cell-based; settings: Homo sapiens, NB-1643, SHEP1, LA1-55N, 48 h, read-out: IC50, cytotoxicity against NB cell lines
Procedure: as §3
as §2, with “Briefly, cells cultured in 96-well microtiter plates were treated with different concentrations of AQ-101 for a 20-h period.” left out

[7] = system: 855 luc; test: WST cytotoxicity assay, 855 luc; assay type: cell-based; settings: read-out: Cancer cell cytotoxicity IC50
Procedure: as §2

[8] = system: caspases-3, -9 and PARP; test: Western blot, cleavage of caspases-3, -9 and PARP in EU-1 cells; assay type: cell-based; settings: 69L52 1 μM vs MX69 5 μM
Procedure: as §1

[9] = system: p21 and PUMA; test: Western blot for p53 targets p21 and PUMA in EU-1 cells; assay type: cell-based
Procedure: as §1

[10] = system: 93-10 line; test: WST cytotoxicity assay, 93-10 line; assay type: cell-based; settings: 93-10 line no MDM2 and p53; read-out: Cancer cell cytotoxicity IC50
Procedure: as §2

[11] = system: ALL cell lines EU-1 and EU-3; test: WST cytotoxicity assay, ALL cell lines; assay type: cell-based; settings: Homo sapiens, 48 h, read-out: IC50, cytotoxicity against ALL cell lines
Procedure: as §3
as §2, with “Briefly, cells cultured in 96-well microtiter plates were treated with different concentrations of AQ-101 for a 20-h period.” left out

[12] = system: 91-06 line; test: WST cytotoxicity assay, 91-06 line; assay type: cell-based; settings: no MDM2 and p53, read-out: Cancer cell cytotoxicity IC50
Procedure: as §2

[13] = system: XIAP mRNA; test: Polysome analysis of XIAP mRNA in EU-1 cells; assay type: cell-based; settings: 1 μM for 4 h
Procedure: Cells were incubated with 100 μg/mL cycloheximide (CHX) for 15 min to arrest polyribosome migration, and then lysed (in order to isolate cytoplasmic extracts) in a buffer containing 20 mM Tris-HCl at pH 8.0, 100 mM NaCl, 5 mM MgCl2, 0.5% Triton X-100, 500 U/mL RNAsin, and a cocktail of protease inhibitors. Fractionation was performed on a 15-45% (w/v) sucrose gradient at 39,000 rpm for 1 h (SW41Ti rotor). Fractions were collected by upward replacement in a fractionator (Isco, Lincoln, NE). The RNA from each fraction was subjected to quantitative PCR.

[14] = system: NB cell lines; test: Colony formation assay, NB cell lines; assay type: cell-based, human
Procedure: A clonogenic assay was used to determine the effect of MX69 analogs on in vitro growth of NB and normal human hematopoietic cells, respectively. For NB1 colony formation assay, cells were harvested with treatment by trypsinization, producing a single-cell suspension, and then 200 cells were seeded into a 6-well plate and cultured for approximately 2 weeks. Colonies were stained with a mixture of 6.0% glutaraldehyde and 0.5% crystal violet for 30 min. Then carefully removed the staining mixture, rinsed with tap water and counted the colonies.

[15] = biological target: T1, MDM2 (Homo sapiens, UniProt Q00987); test: MDM2 reduction / expression (Western blot); assay type: cell-based
T1 construct: ubiquitination of endogenous MDM2 in EU-1 cells; endogenous in cells; host or cells: EU-1 (ALL) cells
T1 sequence (Q00987 whole entry): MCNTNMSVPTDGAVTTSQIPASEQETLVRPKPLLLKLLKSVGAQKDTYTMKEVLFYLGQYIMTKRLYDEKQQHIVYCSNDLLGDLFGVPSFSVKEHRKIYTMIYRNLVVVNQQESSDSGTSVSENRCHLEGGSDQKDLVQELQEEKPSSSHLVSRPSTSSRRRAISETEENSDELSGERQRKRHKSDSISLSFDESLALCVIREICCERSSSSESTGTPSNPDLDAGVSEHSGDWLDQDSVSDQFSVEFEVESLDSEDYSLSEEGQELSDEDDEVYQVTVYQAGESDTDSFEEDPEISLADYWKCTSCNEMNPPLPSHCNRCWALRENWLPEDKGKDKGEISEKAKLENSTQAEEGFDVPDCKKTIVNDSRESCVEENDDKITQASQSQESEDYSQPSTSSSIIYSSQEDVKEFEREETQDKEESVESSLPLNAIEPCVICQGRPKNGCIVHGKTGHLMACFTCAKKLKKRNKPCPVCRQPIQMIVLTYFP
Procedure: as §1

[16] = system: DAOY line; test: WST cytotoxicity assay, DAOY line; assay type: cell-based; settings: Homo sapiens; DAOY line with MDM2/no p53; read-out: Cancer cell cytotoxicity IC50
Procedure: as §2

[17] = system: EU-1; test: WST cytotoxicity assay, cancer cell EU-1; assay type: cell-based, human; settings: EU-1
Outline: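 Pediatric ALL and NB lines grown in RPMI 1640 with 10% FBS at 37 °C, 5% CO2. Cells were exposed to a range of compound concentrations for 20 h, then WST (25 μg/well) was added for a further 4 h. OD read at 450 nm against a 620 nm reference.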

[18] = biological target: MDM2 RING protein (Homo sapiens, UniProt Q00987); test: Compound-protein binding (ITC) to MDM2 RING protein; settings: MDM2 RING domain
Sequence of MDM2 RING protein (Q00987 438-479 limits assumed): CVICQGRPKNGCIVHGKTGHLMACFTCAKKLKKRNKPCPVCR
Procedure: Isothermal titration calorimetry (ITC) assay was performed using the auto-iTC200 instrument (MicroCal, GE). MDM2 protein was loaded into a 96 DeepWell PP plate, and then compound was titrated stepwise into the protein sample cell using a syringe, for a total of 16 injections (except for the first injection, which was 0.4 μl). The equilibrium time between two adjacent injections was 210 s. The binding stoichiometry (n), binding constant (Kd), and thermodynamic parameters (ΔH and ΔS) were determined by fitting the titration curve to a one-site binding mode, using the Origin software provided by the manufacturer.

[19] = system: XIAP; test: XIAP inhibition / expression (Western blot); assay type: cell-based; settings: EU-1 cells; dose-dependent
Procedure: as §1

[20] = system: LA1-55N; test: WST cytotoxicity assay, LA1-55N; assay type: cell-based, human; settings: line does not express normal p53
Procedure: as §3, §2

[21] = biological target: T1, MDM2; test: IP-Western blot, ubiquitination of endogenous MDM2 in EU-1 cells; assay type: cell-based; settings: 1 μM
Procedure: as §1

## Cc1ccc(NS(=O)(=O)c2ccc3c(c2)C2NCC[C@H]2C(C2CCCCC2)N3)cc1C (stereo partly shown) [Compound 69L61]
[1]
  p53 induction: No p53
[2]
  IC50: 3.6 µM
[3]
  IC50: 1.6 µM
[4]
  MYCN inhibition: inhibition
[5]
  IC50: 2.43 µM

## Cc1ccc(NS(=O)(=O)c2ccc3c(c2)C2OCC[C@H]2C(c2ccc(C(=O)C(C)C)cc2)N3)cc1C (stereo partly shown) [Compound 69L52, N-(3,4-dimethylphenyl)-4-(4-isobutyrylphenyl)-2,3,3a,4,5,9b-hexahydrofuran[3,2-c]quinolone-8-sulfonamide]
[1]; EU-1 cells, accompanying MDM2 downregulation
  p53 expression: increased expression
[1]
  p53 induction: induction
[6]
  IC50: 0.5 to 1.2 µM
[7]
  IC50: 0.5 µM
[8]
  Cleavage of caspases-3, -9 and PARP compared with MX69: stronger cleavage
[9]
  p53 downstream targets p21 and PUMA: activation
[2]
  IC50: 0.45 µM
[10]
  IC50: 5.93 µM
[11]
  IC50: 0.3 to 0.4 µM
[12]
  IC50: 3.62 µM
[13]
  Polyribosome association of XIAP mRNA: downregulation in polyribosome association
[14]; NB cell lines
  Colony number and size as compared with controls: significant reduction
[14]; all 3 NB cell lines, two weeks
  Cell growth in colony formation assay: potently inhibited cell growth
[15]; EU-1 cells
  Time after treatment at which MDM2 and XIAP downregulation occurred: 2 to 4 h
[15]; EU-1 cells, 1 μM for 8 h, then 10 μM MG132 4 h
  MDM2 downregulation in presence of MG132: blocked by MG132
[15]; EU-1 cells, dose-dependent
  MDM2 expression: remarkable downregulation
[15]; words or +/− grades, key not given
  MDM2 reduction: inhibition
[16]
  IC50: 2.17 µM
[17]; no other cell line named in the cell, read-out: Cancer cell (EU-1) cytotoxicity IC50
  IC50: 1.1 to 1.4 µM
[17]; Homo sapiens, printed in the Mouse MTD column, control run of the cytotoxicity test, read-out: Value of the compound used as (positive) control alongside the row's compound
  IC50: 0.46 µM
[18]
  MDM2 binding affinity as compared with MX69: Increased MDM2 Binding Affinity
[19]
  XIAP expression: remarkable downregulation
[3]
  IC50: 0.7 µM
[20]
  Cytotoxicity to LA1-55N compared with other cell lines: much less cytotoxicity
[21]
  Ubiquitination of endogenous MDM2: induced ubiquitination of endogenous MDM2
[5]
  IC50: 0.74 µM

Reference: US20240059658A1 (Emory University, priority 2019, published 2024)
